Measurements reported in PubChem BioAssay AID248 (DTP/NCI, 2004).
Values joined by “and” are separate entries in the source; they are usually repeats but may differ in a detail not shown here. Identical values can stand only once. Toxic doses and inconclusive results are not listed.

System: L1210 leukemia ip in BDF1 mice, survival T/C
Test: NCI In Vivo Anticancer Drug Screen. Data for tumor model L1210 Leukemia (intraperitoneal) in B6D2F1 (BDF1) mice
Settings: higher = longer survival
Method in brief: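 Mice bearing the transplanted tumor received compound or vehicle. Survival of the treated group was divided by that of the vehicle-treated control group to give the ratio.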

Structure (SMILES): c1cc2n(n1)CCN2
- T/C (endpoint: mean survival time, dose: 26.6 mg/kg/injection, schedule: Q01DX Z (ip), vehicle: methylcellulose (MC)): 110 % of control
- T/C (endpoint: mean survival time, dose: 40.0 mg/kg/injection, schedule: Q01DX Z (ip), vehicle: methylcellulose (MC)): 108 % of control
- T/C (endpoint: mean survival time, dose: 50.0 mg/kg/injection, schedule: Q01DX009 (ip), vehicle: water): 109 % of control
- T/C (endpoint: mean survival time, dose: 60.0 mg/kg/injection, schedule: Q01DX Z (ip), vehicle: methylcellulose (MC)): 107 % of control and 112 % of control
- T/C (endpoint: mean survival time, dose: 90.0 mg/kg/injection, schedule: Q01DX Z (ip), vehicle: methylcellulose (MC)): 104 % of control and 112 % of control
- T/C (endpoint: mean survival time, dose: 100.0 mg/kg/injection, schedule: Q01DX001 (ip), vehicle: saline): 103 % of control
- T/C (endpoint: mean survival time, dose: 100.0 mg/kg/injection, schedule: Q01DX001 (sc), vehicle: saline): 112 % of control
- T/C (endpoint: mean survival time, dose: 100.0 mg/kg/injection, schedule: Q01DX009 (ip), vehicle: saline): 112 % of control
- T/C (endpoint: mean survival time, dose: 100.0 mg/kg/injection, schedule: Q01DX009 (ip), vehicle: water): 107 % of control
- T/C (endpoint: mean survival time, dose: 100.0 mg/kg/injection, schedule: Q04DX003 (ip), vehicle: saline): 98 % of control and 100 % of control and 104 % of control
- T/C (endpoint: mean survival time, dose: 100.0 mg/kg/injection, schedule: Q04DX003 (ip), vehicle: water): 114 % of control
- T/C (endpoint: mean survival time, dose: 100.0 mg/kg/injection, schedule: Q04DX003 (sc), vehicle: saline): 102 % of control and 105 % of control
- T/C (endpoint: mean survival time, dose: 100.0 mg/kg/injection, schedule: Q08DX002 (ip), vehicle: saline): 105 % of control
- T/C (endpoint: mean survival time, dose: 132.0 mg/kg/injection, schedule: Q01DX009 (ip), vehicle: saline): 115 % of control
- T/C (endpoint: mean survival time, dose: 135.0 mg/kg/injection, schedule: Q01DX Z (ip), vehicle: methylcellulose (MC)): 100 % of control
- T/C (endpoint: mean survival time, dose: 200.0 mg/kg/injection, schedule: Q01DX001 (ip), vehicle: saline): 101 % of control
- T/C (endpoint: mean survival time, dose: 200.0 mg/kg/injection, schedule: Q01DX001 (oral), vehicle: saline): 105 % of control
- T/C (endpoint: mean survival time, dose: 200.0 mg/kg/injection, schedule: Q01DX001 (sc), vehicle: saline): 112 % of control
- T/C (endpoint: mean survival time, dose: 200.0 mg/kg/injection, schedule: Q01DX009 (ip), vehicle: water): 121 % of control
- T/C (endpoint: mean survival time, dose: 200.0 mg/kg/injection, schedule: Q04DX003 (ip), vehicle: saline): 98 % of control and 107 % of control and 124 % of control
- T/C (endpoint: mean survival time, dose: 200.0 mg/kg/injection, schedule: Q04DX003 (oral), vehicle: saline): 110 % of control and 116 % of control
- T/C (endpoint: mean survival time, dose: 200.0 mg/kg/injection, schedule: Q04DX003 (sc), vehicle: saline): 108 % of control and 118 % of control
- T/C (endpoint: mean survival time, dose: 200.0 mg/kg/injection, schedule: Q08DX002 (ip), vehicle: saline): 93 % of control
- T/C (endpoint: mean survival time, dose: 264.0 mg/kg/injection, schedule: Q04DX003 (ip), vehicle: saline): 110 % of control and 117 % of control
- T/C (endpoint: mean survival time, dose: 400.0 mg/kg/injection, schedule: Q01DX001 (ip), vehicle: saline): 116 % of control
- T/C (endpoint: mean survival time, dose: 400.0 mg/kg/injection, schedule: Q01DX001 (oral), vehicle: saline): 113 % of control
- T/C (endpoint: mean survival time, dose: 400.0 mg/kg/injection, schedule: Q04DX003 (ip), vehicle: water): 151 % of control
- T/C (endpoint: mean survival time, dose: 400.0 mg/kg/injection, schedule: Q04DX003 (oral), vehicle: saline): 124 % of control
- T/C (endpoint: mean survival time, dose: 400.0 mg/kg/injection, schedule: Q04DX003 (sc), vehicle: saline): 120 % of control
- T/C (endpoint: mean survival time, dose: 400.0 mg/kg/injection, schedule: Q08DX002 (ip), vehicle: saline): 101 % of control
- T/C (endpoint: mean survival time, dose: 600.0 mg/kg/injection, schedule: Q04DX003 (ip), vehicle: saline): 177 % of control
- T/C (endpoint: mean survival time, dose: 800.0 mg/kg/injection, schedule: Q01DX001 (oral), vehicle: saline): 119 % of control
- T/C (endpoint: mean survival time, dose: 800.0 mg/kg/injection, schedule: Q04DX003 (ip), vehicle: saline): 102 % of control and 104 % of control
- T/C (endpoint: mean survival time, dose: 800.0 mg/kg/injection, schedule: Q04DX003 (oral), vehicle: saline): 108 % of control and 118 % of control
- T/C (endpoint: mean survival time, dose: 800.0 mg/kg/injection, schedule: Q04DX003 (sc), vehicle: saline): 100 % of control
- T/C (endpoint: mean survival time, dose: 800.0 mg/kg/injection, schedule: Q08DX002 (ip), vehicle: saline): 158 % of control
- T/C (endpoint: median survival time, dose: 13.0 mg/kg/injection, schedule: Q03HX024 (ip), vehicle: saline): 102 % of control
- T/C (endpoint: median survival time, dose: 20.0 mg/kg/injection, schedule: Q03HX024 (ip), vehicle: saline): 100 % of control
- T/C (endpoint: median survival time, dose: 30.0 mg/kg/injection, schedule: Q03HX024 (ip), vehicle: saline): 103 % of control
- T/C (endpoint: median survival time, dose: 40.0 mg/kg/injection, schedule: Q01DX009 (ip), vehicle: saline): 104 % of control
- T/C (endpoint: median survival time, dose: 50.0 mg/kg/injection, schedule: Q01DX009 (oral), vehicle: saline): 110 % of control
- T/C (endpoint: median survival time, dose: 50.0 mg/kg/injection, schedule: Q01DX009 (sc), vehicle: saline): 100 % of control
- T/C (endpoint: median survival time, dose: 60.0 mg/kg/injection, schedule: Q01DX009 (ip), vehicle: saline): 111 % of control
- T/C (endpoint: median survival time, dose: 88.0 mg/kg/injection, schedule: Q01DX009 (ip), vehicle: saline): 113 % of control
- T/C (endpoint: median survival time, dose: 100.0 mg/kg/injection, schedule: Q01DX005 (ip), vehicle: saline): 111 % of control
- T/C (endpoint: median survival time, dose: 100.0 mg/kg/injection, schedule: Q01DX009 (ip), vehicle: saline): 113 % of control
- T/C (endpoint: median survival time, dose: 100.0 mg/kg/injection, schedule: Q01DX009 (oral), vehicle: saline): 115 % of control
- T/C (endpoint: median survival time, dose: 100.0 mg/kg/injection, schedule: Q01DX009 (sc), vehicle: saline): 120 % of control
- T/C (endpoint: median survival time, dose: 100.0 mg/kg/injection, schedule: Q04DX003 (ip), vehicle: Klucel (hydroxypropylcellulose) (HPC)): 105 % of control
- T/C (endpoint: median survival time, dose: 100.0 mg/kg/injection, schedule: Q04DX003 (ip), vehicle: saline): 116 % of control
- T/C (endpoint: median survival time, dose: 100.0 mg/kg/injection, schedule: Q08DX002 (ip), vehicle: saline): 100 % of control
- T/C (endpoint: median survival time, dose: 108.0 mg/kg/injection, schedule: Q04DX003 (ip), vehicle: saline): 100 % of control
- T/C (endpoint: median survival time, dose: 133.0 mg/kg/injection, schedule: Q01DX009 (ip), vehicle: saline): 121 % of control
- T/C (endpoint: median survival time, dose: 133.0 mg/kg/injection, schedule: Q04DX003 (ip), vehicle: saline): 119 % of control
- T/C (endpoint: median survival time, dose: 133.0 mg/kg/injection, schedule: Q08DX002 (ip), vehicle: saline): 119 % of control
- T/C (endpoint: median survival time, dose: 180.0 mg/kg/injection, schedule: Q04DX003 (ip), vehicle: saline): 100 % of control
- T/C (endpoint: median survival time, dose: 200.0 mg/kg/injection, schedule: Q01DX001 (ip), vehicle: saline): 103 % of control
- T/C (endpoint: median survival time, dose: 200.0 mg/kg/injection, schedule: Q01DX009 (ip), vehicle: saline): 106 % of control
- T/C (endpoint: median survival time, dose: 200.0 mg/kg/injection, schedule: Q01DX009 (oral), vehicle: saline): 86 % of control
- T/C (endpoint: median survival time, dose: 200.0 mg/kg/injection, schedule: Q01DX009 (sc), vehicle: saline): 150 % of control
- T/C (endpoint: median survival time, dose: 200.0 mg/kg/injection, schedule: Q04DX003 (oral), vehicle: saline): 119 % of control and 120 % of control
- T/C (endpoint: median survival time, dose: 200.0 mg/kg/injection, schedule: Q08DX002 (oral), vehicle: saline): 111 % of control and 120 % of control
- T/C (endpoint: median survival time, dose: 300.0 mg/kg/injection, schedule: Q01DX001 (ip), vehicle: saline): 104 % of control
- T/C (endpoint: median survival time, dose: 300.0 mg/kg/injection, schedule: Q04DX003 (ip), vehicle: saline): 110 % of control
- T/C (endpoint: median survival time, dose: 400.0 mg/kg/injection, schedule: Q04DX003 (ip), vehicle: Klucel (hydroxypropylcellulose) (HPC)): 150 % of control
- T/C (endpoint: median survival time, dose: 400.0 mg/kg/injection, schedule: Q04DX003 (ip), vehicle: saline): 166 % of control
- T/C (endpoint: median survival time, dose: 400.0 mg/kg/injection, schedule: Q04DX003 (sc), vehicle: saline): 195 % of control
- T/C (endpoint: median survival time, dose: 400.0 mg/kg/injection, schedule: Q08DX002 (ip), vehicle: saline): 150 % of control
- T/C (endpoint: median survival time, dose: 444.0 mg/kg/injection, schedule: Q01DX001 (ip), vehicle: saline): 114 % of control
- T/C (endpoint: median survival time, dose: 600.0 mg/kg/injection, schedule: Q04DX003 (ip), vehicle: saline): 101 % of control
- T/C (endpoint: median survival time, dose: 600.0 mg/kg/injection, schedule: Q04DX003 (oral), vehicle: saline): 90 % of control
- T/C (endpoint: median survival time, dose: 600.0 mg/kg/injection, schedule: Q04DX003 (sc), vehicle: saline): 150 % of control
- T/C (endpoint: median survival time, dose: 600.0 mg/kg/injection, schedule: Q08DX002 (oral), vehicle: saline): 165 % of control
- T/C (endpoint: median survival time, dose: 600.0 mg/kg/injection, schedule: Q08DX002 (sc), vehicle: saline): 180 % of control
- T/C (endpoint: median survival time, dose: 660.0 mg/kg/injection, schedule: Q08DX002 (ip), vehicle: saline): 161 % of control
- T/C (endpoint: median survival time, dose: 800.0 mg/kg/injection, schedule: Q04DX003 (ip), vehicle: saline): 106 % of control and 70 % of control

Structure (SMILES): O=[N+]([O-])c1ccc(NN=C2c3ccccc3Cc3ccccc32)c([N+](=O)[O-])c1
- T/C (endpoint: mean survival time, dose: 100.0 mg/kg/injection, schedule: Q04DX002 (ip), vehicle: saline with Tween-80): 87 % of control
- T/C (endpoint: mean survival time, dose: 400.0 mg/kg/injection, schedule: Q04DX002 (ip), vehicle: saline with Tween-80): 94 % of control

Structure (SMILES): COC1OC(CCl)C(OS(=O)(=O)c2ccc(C)cc2)C(OS(=O)(=O)c2ccc(C)cc2)C1OS(=O)(=O)c1ccc(C)cc1 (stereo not drawn)
- T/C (endpoint: mean survival time, dose: 100.0 mg/kg/injection, schedule: Q04DX002 (ip), vehicle: Klucel (hydroxypropylcellulose) (HPC)): 90 % of control
- T/C (endpoint: mean survival time, dose: 200.0 mg/kg/injection, schedule: Q04DX002 (ip), vehicle: Klucel (hydroxypropylcellulose) (HPC)): 93 % of control
- T/C (endpoint: mean survival time, dose: 400.0 mg/kg/injection, schedule: Q04DX002 (ip), vehicle: Klucel (hydroxypropylcellulose) (HPC)): 97 % of control

Structure (SMILES): Nc1c(Br)cc(Br)cc1C(=O)O
- T/C (endpoint: mean survival time, dose: 100.0 mg/kg/injection, schedule: Q01DX001 (ip), vehicle: other): 97 % of control
- T/C (endpoint: mean survival time, dose: 200.0 mg/kg/injection, schedule: Q01DX001 (ip), vehicle: other): 97 % of control
